In paper PMC9435431, “Novel chemical entities inhibiting Mycobacterium tuberculosis growth identified by phenotypic high-throughput screening” (Scientific Reports, 2022):
In brackets after ≈: the same amount, converted by molar mass. Like-named read-outs stand apart in the source and are kept apart here.

Key:
[1] = tested on: wild-type M. tuberculosis; assay: microbe, parasite or virus in culture; assay type: cell-based, Mycobacterium tuberculosis; settings: for MIC / IC90: Mycobacterium tuberculosis
in vitro = in vitro ADME, human; settings: for microsomal clearance / stability (in words): human microsomes; for CLint scaled at 0.5 µM: human, microsomes, pH 7.4, human Clint
Description: Compounds (0.5 µM) were incubated with 0.25 mg/mL liver microsomal proteins at pH 7.4 at 37 °C. Reactions were initiated with […] and samples taken at 0, 5, 10, 15, 20 and 30 min. The reaction was stopped by addition of 95% ACN/5% MeOH containing an internal standard. Samples were combined in compound groups of six pre-sorted by mono molecular weight and analyzed by LC/MS/MS. The peak area ratios (analyte peak area/IS peak area) were converted to % remaining using the area ratio at time 0 as 100%. The. half-life (T ½) and intrinsic clearance (mCLint) were calculated.

[2] = Table 5, read-out: Wild-type MIC

| SMILES | MIC ([1]; 120 h, read-out: MIC) | MIC ([1]; read-out: MIC) | anti-tubercular activity (in words) [1] | microsomal clearance / stability (in words) (in vitro) | CLint scaled at 0.5 µM (in vitro) | MIC [1, 2] | IC90 [1] |
| --- | --- | --- | --- | --- | --- | --- | --- |
| CC(C)(C)CC(C)(C)N1CC=C(c2c[nH]c3ccccc23)CC1 [Molecule 4PP-47, 3-(1-(2,4,4-Trimethylpentan-2-yl)-1,2,3,6-tetrahydropyridin-4-yl)-1H-indole] | 9.6 ± 2.2 µM (≈ 2.98 µg/mL) | 9.6 µM (≈ 2.98 µg/mL) | – | – | – | – | – |
| CC(C)(C)CC(C)(C)N1CCC(c2c[nH]c3ccccc23)CC1 [Molecule 4PP-48, 3-(1-(2,4,4-Trimethylpentan-2-yl)piperidin-4-yl)-1H-indole] | 1.6 µM (≈ 0.5 µg/mL) | 1.6 µM (≈ 0.5 µg/mL) | – | – | – | – | – |
| CC(C)(C)CC(C)(C)N1CCN(c2ccc(C(C)(C)C)cc2)CC1 [Molecule 4PP-49, 1-(4-(t-Butyl)phenyl)-4-(2,4,4-trimethylpentan-2-yl)piperazine] | > 5 µM | – | loss in activity | – | – | – | – |
| CC(C)(C)CC(C)(C)N1CCN(c2ccccc2)CC1 [Molecule 4PP-50, 1-Phenyl-4-(2,4,4-trimethylpentan-2-yl)piperazine] | > 10 µM | – | loss in activity | – | – | – | – |
| FC1CN(CC2CCCCC2)CCC1c1ccccc1.O=C(O)C(F)(F)F (centres unmarked) [Molecule 4PP-51, 1-(Cyclohexylmethyl)-3-fluoro-4-phenyl-piperidine; 2,2,2-trifluoroacetic acid] | > 20 µM | – | not tolerated | – | – | – | – |
| FC1CN(CC2CCCCC2)CCC1c1ccc(Cl)cc1.O=C(O)C(F)(F)F (centres unmarked) [Molecule 4PP-52, 4-(4-Chlorophenyl)-1-(cyclohexylmethyl)-3-fluoro-piperidine; 2,2,2-trifluoroacetic acid] | > 20 µM | – | not tolerated | – | – | – | – |
| COc1ccc(C2CCN(CC3CCCCC3)CC2F)cc1.O=C(O)C(F)(F)F (centres unmarked) [Molecule 4PP-53, 1-(Cyclohexylmethyl)-3-fluoro-4-(4-methoxyphenyl)piperidine; 2,2,2-trifluoroacetic acid] | > 20 µM | – | not tolerated | – | – | – | – |
| COc1cc(CCNC(=O)C2(c3ccccc3)CCC2)ccc1O [PCB-3, N-(4-hydroxy-3-methoxyphenethyl)-1-phenylcyclobutane-1-carboxamide] | > 20 µM | > 20 µM | – | clearance was improved | 12.5 L/h/kg | – | – |
| O=C(NCCc1ccc2c(c1)OCO2)C1(c2ccccc2)CCC1 [PCB-4, N-(2-(benzo[d][1,3]dioxol-5-yl)ethyl)-1-phenylcyclobutane-1-carboxamide] | 12 ± 2.6 µM (≈ 3.88 µg/mL) | – | retained anti-tubercular activity | intermediate clearance | 52.1 L/h/kg | – | – |
| O=C(NCCc1cccc(Br)c1)C1(c2ccccc2)CCC1 [PCB-5, N-(3-bromophenethyl)-1-phenylcyclobutane-1-carboxamide] | 4.9 ± 1.7 µM (≈ 1.76 µg/mL) | 4.9 µM (≈ 1.76 µg/mL) | – | – | 236 L/h/kg | – | – |
| O=C(NCCc1ccc(Br)cc1)C1(c2ccccc2)CCC1 [PCB-6, N-(4-bromophenethyl)-1-phenylcyclobutane-1-carboxamide] | 5.4 ± 0.3 µM (≈ 1.93 µg/mL) | 5.4 µM (≈ 1.93 µg/mL) | – | – | 35.6 L/h/kg | – | – |
| O=C(NCCc1cccc(C(F)(F)F)c1)C1(c2ccccc2)CCC1 [PCB-7, 1-phenyl-N-(3-(trifluoromethyl)phenethyl)cyclobutane-1-carboxamide] | 3.7 ± 2.7 µM (≈ 1.29 µg/mL) | 3.7 µM (≈ 1.29 µg/mL) | – | increased clearance | 270 L/h/kg | – | – |
| O=C(NCCc1cc(Br)ccn1)C1(c2ccccc2)CCC1 [PCB-8, N-(2-(4-bromopyridin-2-yl)ethyl)-1-phenylcyclobutane-1-carboxamide] | > 20 µM | > 20 µM | – | improved clearance | 69.7 L/h/kg | – | – |
| O=C(N[C@H]1CCc2ccc(Br)cc2C1)C1(c2ccccc2)CCC1 [PCB-9, (S)-N-(7-bromo-1,2,3,4-tetrahydronaphthalen-2-yl)-1-phenylcyclobutane-1-carboxamide] | 6.9 ± 2.9 µM (≈ 2.65 µg/mL) | 6.9 µM (≈ 2.65 µg/mL) | – | increased microsomal clearance | 273 L/h/kg | – | – |
| O=C(Nc1ncc2c(Br)cccc2n1)C1(c2ccccc2)CCC1 [PCB-10, N-(5-bromoquinazolin-2-yl)-1-phenylcyclobutane-1-carboxamide] | 9.3 ± 1 µM (≈ 3.56 µg/mL) | 9.3 µM (≈ 3.56 µg/mL) | – | reasonable clearance | 14.4 L/h/kg | – | – |
| O=C(NCC(O)c1ccc2c(c1)OCO2)C1(c2ccccc2)CCC1 (centres unmarked) [PCB-11, N-(2-(benzo[d][1,3]dioxol-5-yl)-2-hydroxyethyl)-1-phenylcyclobutane-1-carboxamide] | > 20 µM | > 20 µM | – | lower clearance | 9.66 L/h/kg | – | – |
| O=C(CNC(=O)C1(c2ccccc2)CCC1)c1cccc(Br)c1 [PCB-12, N-(2-(3-bromophenyl)-2-oxoethyl)-1-phenylcyclobutane-1-carboxamide] | 7.3 ± 0.3 µM (≈ 2.72 µg/mL) | – | tolerated | did not improve clearance | 47.3 L/h/kg | – | – |
| Brc1cccc(-c2nc(C3(c4ccccc4)CCC3)no2)c1 [PCB-13, 5-(3-bromophenyl)-3-(1-phenylcyclobutyl)-1,2,4-oxadiazole] | > 20 µM | – | loss of activity | high clearance | 266 L/h/kg | – | – |
| CN(CCc1cccc(Br)c1)C(=O)C1(c2ccccc2)CCC1 [PCB-14, N-(3-bromophenethyl)-N-methyl-1-phenylcyclobutane-1-carboxamide] | > 20 µM | – | inactive | highly metabolized | 447 L/h/kg | – | – |
| O=C(NCCc1cccc(Br)c1)C1(c2ccc(Cl)cc2)CCC1 [PCB-15, N-(3-bromophenethyl)-1-(4-chlorophenyl)cyclobutane-1-carboxamide] | 9.7 ± 6.7 µM (≈ 3.81 µg/mL) | – | slight reduction | clearances increased | 559 L/h/kg | – | – |
| O=C(NCCc1cccc(Br)c1)C1(c2cccc(Cl)c2)CCC1 [PCB-16, N-(3-bromophenethyl)-1-(3-chlorophenyl)cyclobutane-1-carboxamide] | 5 ± 1.6 µM (≈ 1.96 µg/mL) | – | little change | clearances increased | 552 L/h/kg | 5 µM (≈ 1.96 µg/mL) | – |
| O=C(NCCc1cccc(Br)c1)C1(c2ccccc2Cl)CCC1 [PCB-17, N-(3-bromophenethyl)-1-(2-chlorophenyl)cyclobutane-1-carboxamide] | 1.8 ± 0.7 µM (≈ 0.707 µg/mL) | – | increase in activity | clearances increased | 673 L/h/kg | 1.8 µM (≈ 0.707 µg/mL) | – |
| O=C(NCCc1cccc(Br)c1)C1(c2ccc(Cl)cc2Cl)CCC1 [PCB-18, N-(3-bromophenethyl)-1-(2,4-dichlorophenyl)cyclobutane-1-carboxamide] | 13 ± 5 µM (≈ 5.55 µg/mL) | – | low antitubercular activity | very low stability | 1690 L/h/kg | – | – |
| COc1ccc(-c2cc(N)nc(-n3nc(C)cc3C)n2)cc1 [PZP-1] | – | – | – | – | – | – | 5.2 µM |
| Cc1cc(C)n(-c2nc(N)cc(-c3cccc(F)c3)n2)n1 [PZP-2] | – | – | – | – | – | – | 7.4 µM |
